Data published in paper PMC9972471, “Calamene-Type Sesqui-, Mero-, and Bis-sesquiterpenoids from Cultures of Heimiomyces sp., a Basidiomycete Collected in Africa” (Journal of Natural Products, 2023).
Converted amounts (≈) assume the structure as drawn. Like-named read-outs stand apart in the source and are kept apart here.

How the values were obtained:
Format in all cases: cell-based
Bacillus subtilis DSM 10 = experiment: Serial dilution assay, MIC; conditions: for MIC: DSM10, - = no inhibition was observed, read-out: Minimum inhibitory concentration (MIC)
Protocol: (§1) Figure S3. ECD spectra of 7 .
(§2) Eval uation of anti mi cr obi al acti vity.
(§3) To assess the antimicrobial activity of each compound, a serial dilution assay to ascertain their minimum inhibitory concentration (MIC) against sever al yeast, fungal and bacterial strains was c arried out in 96-well micr otiter plates, as previously described by Har ms et al.
(§4) Table S1. Minimum inhibitory concentration (MIC in µg/mL) for yeast, bacterial and fungal strains.
(§5) The serial dilution assay was performed using 1 mg/mL stock solutions of 1 -8, 13, 15 and 16. As positive control the antimicrobials [ O] Oxytetracyclin , [ G] Gentamycin and [ K] Kanamycin wer e used for bacteria and [N] Nystatin was used for filamentous fungi and yeast.
(§6) (DSM 70572), Pichia anomala (DSM 6766), Candida albicans (DSM 1665), Escherichia coli (DSM 1116), Mycobacterium smegmatis (ATCC 700084), Pseudomonas aeruginosa (DSM PA14), Chromobacterium violaceum (DSM 30191) and Acinetobacter baumannii (DSM 30008).
(§7) (1 picture or pasted object on this page, not shown here)

[1] = system: Staphylococcus aureus DSM 346; experiment: Serial dilution assay, MIC; conditions: for MIC: Staphylococcus aureus, DSM346, read-out: Minimum inhibitory concentration (MIC)
Protocol: as §1, §2, §3, §4, §5, §6, §7

[2] = system: cervix carcinoma cell line KB3.1; experiment: In vitro cytotoxicity assay; conditions: Homo sapiens, KB 3-1, - = no activity, read-out: Half inhibitory concentration (IC50)
Protocol: (§8) Eval uation of cytot ox icity.
(§9) Assessment of in vitro cytotoxicity was performed in 96-well plates, as previously published by Harms et al against the
(§10) mouse fibroblast cell line L929 and the cervix car cinoma cell line KB3.1. […]
(§11) Table S2. Half inhibitory concentration (IC50 i n µM ) .
(§12) The cytotoxicity assay was performed using 1 mg/mL stock solutions of 1 -8 , 13 , 15 and 16. Epo thilon B was tested as positive

[3] = system: mouse fibroblast cell line L929; experiment: In vitro cytotoxicity assay; conditions: - = no activity, read-out: Half inhibitory concentration (IC50)
Protocol: as §8, §9, §10, §11, §12

[4] = system: Rhodotorula glutinis DSM 10134; experiment: Serial dilution assay, MIC; conditions: for MIC: DSM10134, - = no inhibition was observed, read-out: Minimum inhibitory concentration (MIC)
Protocol: as §1, §2, §3, §4, §5, §6, §7

[5] = system: human ovarian carcinoma cell line SKOV-3; experiment: Extended cytotoxicity assay; conditions: SK-OV-3, read-out: Half inhibitory concentration (IC50)
Protocol: as §8
(§13) Assessment of in vitro cytotoxicity was performed in 96-well plates, as previously published by Harms et al against the mouse fibroblast cell line L929 and the cervix car cinoma cell line KB3.1. Heimiomycin D (5 ) was additionally tested against human breast carcinoma cell line MCF-7, human lung carcinoma cell line A549, human ovarian carcinoma cell line SKOV -3, human prostate carcinoma cell line P C-3 and human epidermoid carcinoma cell line A431.
(§14) Table S2. Half inhibitory concentration (IC50 i n µM ) . […]
(§15) Table S3. Half inhibitory concentration (IC50 in µM) of 5 .
(§16) The extended cytotoxicity assay against further cell lines was performed using a 1 mg/mL stock solution of 5 . Epothilon B was tested as positive control.
(§17) Hei mio my cin D (5) Epo B

[6] = system: human epidermoid carcinoma cell line A431; experiment: Extended cytotoxicity assay; conditions: read-out: Half inhibitory concentration (IC50)
Protocol: as §8, §13, §14, §15, §16, §17

[7] = system: human breast carcinoma cell line MCF-7; experiment: Extended cytotoxicity assay; conditions: MCF7, read-out: Half inhibitory concentration (IC50)
Protocol: as §8, §13, §14, §15, §16, §17

[8] = system: human prostate carcinoma cell line PC-3; experiment: Extended cytotoxicity assay; conditions: read-out: Half inhibitory concentration (IC50)
Protocol: as §8, §13, §11
(§18) The cytotoxicity assay was performed using 1 mg/mL stock solutions of 1 -8 , 13 , 15 and 16. Epo thilon B was tested as positive […]
(§19) IC50 in µM; - no activity
as §15, §16, §17

[9] = system: human lung carcinoma cell line A549; experiment: Extended cytotoxicity assay; conditions: read-out: Half inhibitory concentration (IC50)
Protocol: as §8, §13, §11, §18, §19, §15, §16, §17

Mucor hiemalis DSM 2656 = experiment: Serial dilution assay, MIC
Protocol: as §1, §2, §3, §4, §5, §6, §7

MIC (Bacillus subtilis DSM 10) | MIC [1] | Structure (SMILES) | IC50 [2] | IC50 [3] | also measured
16.6 µg/mL (≈ 26.8 µM) | 33.3 µg/mL (≈ 53.8 µM) | CC(C)[C@H]1CC[C@H](C)c2c(O)c(O)c(CO)c(C3=C(O)C(=O)C4=C(OCc5c(O)c(O)c6c(c54)[C@@H](C(C)C)CC[C@@H]6C)C3=O)c21 [compound 3, Bis-heimiomycin C] | 27.5 µM | 32.4 µM | 
33.3 µg/mL (≈ 67.9 µM) |  | O=c1cc(O)cc(C2c3c(cc(/C=C/c4ccc(O)c(O)c4)oc3=O)OC2c2ccc(O)c(O)c2)o1 (stereo not drawn) [compound 16, hypholomin B] |  |  | 
66.6 µg/mL (≈ 254 µM) |  | Cc1c(O)c(O)c(C(C)C)c2c1CCC(C(=O)O)=C2 [compound 8, Heimiocalamene B] | 31.3 µM | 37.4 µM | MIC [4]: 66.6 µg/mL (≈ 254 µM)
16.6 µg/mL (≈ 26.9 µM) | 33.3 µg/mL (≈ 54 µM) | CC(C)[C@H]1CC[C@H](C)c2c(O)c(O)c(C=O)c(C3=C(O)C(=O)C4=C(OCc5c(O)c(O)c6c(c54)[C@@H](C(C)C)CC[C@@H]6C)C3=O)c21 [compound 2, Bis-heimiomycin B] | 30.8 µM |  | 
 |  | O=c1cc(O)cc(/C=C/c2ccc(O)c(O)c2)o1 [compound 15, hispidin] | 93.5 µM | 85.4 µM | 
16.6 µg/mL (≈ 43 µM) | 66.6 µg/mL (≈ 172 µM) | CC(C)[C@H]1CC[C@H](C)c2c(O)c(O)c(C=O)c(C3=C(O)C(=O)C=C(O)C3=O)c21 [compound 6, Heimiomycin E] |  | 57 µM | 
33.3 µg/mL (≈ 83.2 µM) | 33.3 µg/mL (≈ 83.2 µM) | CC1=C(O)C(=O)C(c2c(C=O)c(O)c(O)c3c2[C@@H](C(C)C)CC[C@@H]3C)=C(O)C1=O [compound 5, Heimiomycin D] | 6.3 µM | 45 µM | IC50 [5]: 3 µM; IC50 ([6]; A431): 4.3 µM; IC50 ([6]; Homo sapiens, A-431, A431): 4.25 µM; IC50 [7]: 2.5 µM; IC50 [8]: 30 µM; IC50 [9]: 14.3 µM
66.6 µg/mL (≈ 284 µM) | 66.6 µg/mL (≈ 284 µM) | CC(C)[C@H]1CC[C@H](C)C2=C1C=C(C(=O)O)CC2 [compound 7, Heimiocalamene A] | 85.5 µM |  | MIC [4]: 66.6 µg/mL (≈ 284 µM); MIC (Mucor hiemalis DSM 2656; DSM2656, - = no inhibition was observed, read-out: Minimum inhibitory concentration (MIC)): 33.3 µg/mL (≈ 142 µM)
 |  | CC(C)[C@H]1CC[C@H](C)c2c(O)c(O)c3c(c21)C1=C(OC3)C(=O)C2=C(OCc3c(O)c(O)c4c(c32)[C@@H](C(C)C)CC[C@@H]4C)C1=O [compound 4, Bis-heimiomycin D] | 35 µM |  | 
 |  | CN(C)[C@@H]1C(=O)C(C(N)=O)=C(O)[C@@]2(O)C(=O)C3=C(O)c4c(O)cccc4[C@@](C)(O)[C@H]3[C@H](O)[C@@H]12 [Oxytetracyclin, reference compound] |  |  | Minimum inhibitory concentration (MIC) (Bacillus subtilis DSM 10; - = no inhibition was observed): 8.3 µg/mL (≈ 18 µM); Minimum inhibitory concentration (MIC) ([1]; Staphylococcus aureus DSM 346, - = no inhibition was observed): 0.83 µg/mL (≈ 1.8 µM)
 |  | C[C@@H]1[C@H](O)[C@@H](C)/C=C/C=C/CC/C=C/C=C/C=C/C=C/C(O[C@H]2O[C@H](C)[C@@H](O)[C@H](N)[C@@H]2O)CC2O[C@](O)(CC(O)C(O)CCC(O)CC(O)CC(O)CC(=O)O[C@H]1C)CC(O)C2C(=O)O (stereo partly drawn) [Nystatin, reference compound] |  |  | Minimum inhibitory concentration (MIC) ([4]; - = no inhibition was observed): 4.2 µg/mL (≈ 4.54 µM); Minimum inhibitory concentration (MIC) (Mucor hiemalis DSM 2656; - = no inhibition was observed): 8.3 µg/mL (≈ 8.96 µM)
33.3 µg/mL (≈ 52.6 µM) |  | CC(C)[C@H]1CC[C@H](C)c2c(O)c(O)c(C=O)c(C3=C(O)C(=O)C(c4c(C=O)c(O)c(O)c5c4[C@@H](C(C)C)CC[C@@H]5C)=C(O)C3=O)c21 [compound 1, Bis-heimiomycin A] |  |  | MIC [4]: 66.6 µg/mL (≈ 105 µM)
